Source: ChEMBL document CHEMBL6114952, “Synthesis and antitumor effects of novel betulinic acid derivatives bearing electrophilic moieties” (Bioorg Med Chem, 2025)
Calls of active or inactive are those of the source. The calls are words filed in the database; no cut-off is given here.

Assays:
MCF7 [1] = assay: Induction of apoptosis in human MCF7 cells assessed as necrotic cells at 0.5 uM incubated for 24 hrs by Annexin V-FITC/PI double staining based flow cytometric analysis (reference value: 3.44 %); format: functional
MCF7 [2] = assay: Antitumor activity against human MCF7 cells xenografted in female BALB/c mouse assessed as tumor growth inhibition at 5 mg/kg, iv administered daily for 14 days relative to control; format: functional; details: MCF7, 336 h, time 14 day, read-out: TGI
[3] = target: Serine/threonine-protein kinase mTOR (Homo sapiens) (UniProt P42345); assay: Inhibition of mTOR phosphorylation in human Trastuzumab-resistant JIMT-1 cells at 1 uM by Western blot analysis; format: cell-based; details: Trastuzumab-resistant JIMT-1 cell
[4] = Antiproliferative activity against human Trastuzumab-resistant JIMT-1 cells at 0.5 uM by MTT assay relative to control; format: functional, Trastuzumab-resistant JIMT-1 cell
MCF7 [5] = assay: Induction of cell cycle arrest in human MCF7 cells assessed as accumulation of cells at G2/M phase at 0.5 uM incubated for 24 hrs by PI/RNase staining based flow cytometric analysis (reference value: 20.8 %); format: functional
MCF7 [6] = assay: Induction of cell cycle arrest in human MCF7 cells assessed as accumulation of cells at G1 phase at 2 uM incubated for 24 hrs by PI/RNase staining based flow cytometric analysis (reference value: 52.7 %); format: functional
MCF7 [7] = assay: Induction of autophagy in human MCF7 cells incubated for 24 hrs by MDC probe based confocal microscopy analysis; format: functional, cell-based; details: dose 0.5-2 µM
MCF7 [8] = assay: Induction of apoptosis in human MCF7 cells assessed as necrotic cells at 2 uM incubated for 24 hrs by Annexin V-FITC/PI double staining based flow cytometric analysis (reference value: 3.44 %); format: functional
MCF7 [9] = assay: Antiproliferative activity against human MCF7 cells assessed as inhibition of cell proliferation incubated for 48 hrs by MTT assay; format: functional, cell-based; details: MCF7, 48 h
[10] = target: Serine/threonine-protein kinase mTOR (Homo sapiens) (UniProt P42345); assay: Inhibition of mTOR phosphorylation in human Trastuzumab-resistant JIMT-1 cells at 1 uM cotreated with trastuzumab by Western blot analysis; format: cell-based; details: Trastuzumab-resistant JIMT-1 cell
HeLa [11] = assay: Inhibition of cell migration in human HeLa cells incubated for 12 to 24 hrs by wound healing assay; format: functional, cell-based; details: dose 1-4 µM, time 12-24 hrs
[12] = Antiproliferative activity against human Trastuzumab-resistant JIMT-1 cells at 0.5 uM in presence of trastuzumab by MTT assay relative to control; format: functional, Trastuzumab-resistant JIMT-1 cell
MCF7 [13] = assay: Inhibition of cell migration in human MCF7 cells incubated for 12 to 24 hrs by wound healing assay; format: functional, cell-based; details: dose 1-4 µM, time 12-24 hrs
MCF7 [14] = assay: Induction of apoptosis in human MCF7 cells assessed as late apoptotic cells at 0.5 uM incubated for 24 hrs by Annexin V-FITC/PI double staining based flow cytometric analysis (reference value: 11.8 %); format: functional
MCF7 [15] = assay: Induction of apoptosis in human MCF7 cells assessed as necrotic cells at 1 uM incubated for 24 hrs by Annexin V-FITC/PI double staining based flow cytometric analysis (reference value: 3.44 %); format: functional
MCF7 [16] = assay: Induction of cell cycle arrest in human MCF7 cells assessed as accumulation of cells at G2/M phase at 2 uM incubated for 24 hrs by PI/RNase staining based flow cytometric analysis (reference value: 20.8 %); format: functional
MCF7 [17] = assay: Induction of cell cycle arrest in human MCF7 cells assessed as accumulation of cells at S phase at 2 uM incubated for 24 hrs by PI/RNase staining based flow cytometric analysis (reference value: 26.4 %); format: functional
MDA-MB-231 = assay: Antiproliferative activity against human MDA-MB-231 cells assessed as inhibition of cell proliferation incubated for 48 hrs by MTT assay; format: functional, cell-based; details: MDA-MB-231, 48 h
[18] = tested on: Trastuzumab-resistant JIMT-1 cell; assay: Inhibition of AKT phosphorylation in human Trastuzumab-resistant JIMT-1 cells at 1 uM by Western blot analysis; format: cell-based
MCF7 [19] = assay: Induction of apoptosis in human MCF7 cells assessed as viable cells at 0.5 uM incubated for 24 hrs by Annexin V-FITC/PI double staining based flow cytometric analysis (reference value: 83.2 %); format: functional; details: read-out: Activity
[20] = tested on: Trastuzumab-resistant JIMT-1 cell; assay: Inhibition of AKT phosphorylation in human Trastuzumab-resistant JIMT-1 cells at 1 uM cotreated with trastuzumab by Western blot analysis; format: cell-based
MCF7 [21] = assay: Inhibition of AKT phosphorylation in human MCF7 cells incubated for 24 hrs by Western blot analysis; format: cell-based; details: dose 0.5-2 µM
MCF7 [22] = assay: Induction of apoptosis in human MCF7 cells assessed as early apoptotic cells at 1 uM incubated for 24 hrs by Annexin V-FITC/PI double staining based flow cytometric analysis (reference value: 1.56 %); format: functional
MCF7 [23] = assay: Inhibition of colony formation in human MCF7 cells assessed as decrease in colonies incubated for 10 days with replacement of medium for every 3 days by crystal violet staining based assay; format: functional, cell-based; details: dose 0.5-2 µM, time 10.0 day
MCF7 [24] = assay: Induction of cell cycle arrest in human MCF7 cells assessed as accumulation of cells at S phase at 1 uM incubated for 24 hrs by PI/RNase staining based flow cytometric analysis (reference value: 26.4 %); format: functional
MCF7 [25] = assay: Induction of cell cycle arrest in human MCF7 cells assessed as accumulation of cells at G2/M phase at 1 uM incubated for 24 hrs by PI/RNase staining based flow cytometric analysis (reference value: 20.8 %); format: functional
[26] = target: Serine/threonine-protein kinase mTOR (Homo sapiens) (UniProt P42345); assay: Inhibition of mTOR phosphorylation in human MCF7 cells incubated for 24 hrs by Western blot analysis; format: cell-based; details: dose 0.5-2 µM
JIMT-1 = assay: Synergistic antiproliferative activity against human JIMT-1 cells assessed inhibition of cell growth at 0.25 to 1 uM by MTT assay; format: functional, cell-based; details: dose 0.25-1 µM
MCF7 [27] = assay: Induction of cell cycle arrest in human MCF7 cells assessed as accumulation of cells at G1 phase at 0.5 uM incubated for 24 hrs by PI/RNase staining based flow cytometric analysis (reference value: 52.7 %); format: functional
MCF7 [28] = assay: Induction of apoptosis in human MCF7 cells assessed as viable cells at 1 uM incubated for 24 hrs by Annexin V-FITC/PI double staining based flow cytometric analysis (reference value: 83.2 %); format: functional; details: read-out: Activity
MCF7 [29] = assay: Induction of apoptosis in human MCF7 cells assessed as late apoptotic cells at 1 uM incubated for 24 hrs by Annexin V-FITC/PI double staining based flow cytometric analysis (reference value: 11.8 %); format: functional
MCF7 [30] = assay: Induction of apoptosis in human MCF7 cells assessed as early apoptotic cells at 0.5 uM incubated for 24 hrs by Annexin V-FITC/PI double staining based flow cytometric analysis (reference value: 1.56 %); format: functional
MCF7 [31] = assay: Induction of apoptosis in human MCF7 cells assessed as early apoptotic cells at 2 uM incubated for 24 hrs by Annexin V-FITC/PI double staining based flow cytometric analysis (reference value: 1.56 %); format: functional
MCF7 [32] = assay: Induction of cell cycle arrest in human MCF7 cells assessed as accumulation of cells at S phase at 0.5 uM incubated for 24 hrs by PI/RNase staining based flow cytometric analysis (reference value: 26.4 %); format: functional
MCF7 [33] = assay: Induction of apoptosis in human MCF7 cells assessed as viable cells at 2 uM incubated for 24 hrs by Annexin V-FITC/PI double staining based flow cytometric analysis (reference value: 83.2 %); format: functional; details: read-out: Activity
MCF7 [34] = assay: Induction of apoptosis in human MCF7 cells assessed as late apoptotic cells at 2 uM incubated for 24 hrs by Annexin V-FITC/PI double staining based flow cytometric analysis (reference value: 11.8 %); format: functional
MCF7 [35] = assay: Induction of ROS generation in human MCF7 cells assessed as increase in intracellular ROS level at 0.5 to 2 uM incubated for 24 hrs by DCFH-DA staining based microscopic analysis; format: functional, cell-based; details: dose 0.5-2 µM
MCF7 [36] = assay: Induction of cell cycle arrest in human MCF7 cells assessed as accumulation of cells at G1 phase at 1 uM incubated for 24 hrs by PI/RNase staining based flow cytometric analysis (reference value: 52.7 %); format: functional
HeLa [37] = assay: Antiproliferative activity against human HeLa cells assessed as inhibition of cell proliferation incubated for 48 hrs by MTT assay; format: functional, cell-based
[38] = Toxicity in female BALB/c mouse xenografted with human MCF7 cells assessed as body weight loss at 5 mg/kg, iv measured daily for 14 days; format: organism-based; details: in vivo, 336 h, time 14 day

inhibition [3]: Active | IC50 (MCF7 [9]): 1.09 µM | inhibition [10]: Active | IC50 (MDA-MB-231): 1.66 µM | inhibition [26]: Dose-dependent-effect | IC50 (HeLa [37]): 1.11 µM
SMILES: C=C(C)[C@@H]1CC[C@]2(C(=O)O)CC[C@]3(C)[C@H](CC[C@@H]4[C@@]5(C)CC[C@H](OC(=O)N6CCN(C(=O)CCl)CC6)C(C)(C)[C@@H]5CC[C@]43C)[C@@H]12
Activity (MCF7 [1]): 2.49% | inhibition in vivo at 5 mg/kg (MCF7 [2]): 36% | Activity [4]: 19.9% | Activity (MCF7 [5]): 23.4% | Activity (MCF7 [6]): 53.4% | Activity (MCF7 [7]): Dose-dependent-effect | Activity (MCF7 [8]): 2.93% | inhibition (HeLa [11]): Dose-dependent-effect | Activity [12]: 59% | inhibition (MCF7 [13]): Dose-dependent-effect | Activity (MCF7 [14]): 15.3% | Activity (MCF7 [15]): 3.93% | Activity (MCF7 [16]): 27.2% | Activity (MCF7 [17]): 19.8% | inhibition [18]: Active | viability at 0.5 µM (MCF7 [19]): 79.7% | inhibition [20]: Active | inhibition (MCF7 [21]): Dose-dependent-effect | Activity (MCF7 [22]): 1.99% | inhibition (MCF7 [23]): Dose-dependent-effect | Activity (MCF7 [24]): 19.1% | Activity (MCF7 [25]): 24.3% | Activity (JIMT-1): Active | Activity (MCF7 [27]): 54.7% | viability at 1 µM (MCF7 [28]): 74.9% | Activity (MCF7 [29]): 19.2% | Activity (MCF7 [30]): 2.47% | Activity (MCF7 [31]): 2.72% | Activity (MCF7 [32]): 22% | viability at 2 µM (MCF7 [33]): 72.3% | Activity (MCF7 [34]): 22% | Activity (MCF7 [35]): Active | Activity (MCF7 [36]): 56.4% | Activity [38]: Non-toxic
